Measured values as given in patent publication US20220127297A1, “Novel Antibacterial 3"-Derivatives Of 4,6-Disubstituted 2,5-Dideoxystreptamine Aminoglycoside Antibiotics” (AGILeBiotics B.V., priority 2018, published 2022).
In brackets after ≈: the same amount, converted by molar mass.

Experiments:
E. coli ATCC25922 strain = test: MIC 50, broth micro-dilution, wild-type Escherichia coli; type: cell-based; conditions: MH2, 18 h
Text: (§1) 3.1 Against E. coli Strains
(§2) Tested reference compounds. Amikacin sulfate (Cat. No. 01693, Chem-Impex), Gentamicin sulfate (Cat. No. G4918, Sigma Aldrich).
(§3) Microbial strains. E. coli ATCC 25922, E. coli ATCC 25922/pET-9b(+), E. coli ATCC 25922/pAT21-1, E. coli ATCC 25922/pBluescript::AAC(6′)-Ie/APH(2″)-Ia, E. coli ATCC 25922/pBlue_lpp_aacC3_rrnC, E. coli ATCC 25922/pSET152.
(§4) Culture media and equipment. BBL™ Mueller Hinton Broth 2 (Lot. BCBW1143, Cat. No. 70192, Sigma); Kanamycin A (Cat. No. A1493, AppliChem); 96-well deep well plate, 1 mL (Cat. No. 0030506.200, Eppendorf); Plate lids (Cat. No. 0030131.525, Eppendorf); 96-well plate, F-bottom (Cat. No. 781602, Brand; Incubator, Infors Multitron Pro); Laminar flow (Heraeus KS12); UV/VIS meter (Eppendorf BioPhotometer Plus); Platereader (Tecan Sunrise).
(§5) Compound preparation. Compounds were prepared in MH2 media at a concentration of 5 mM and stored at 4° C. For testing, solutions of 128 μM were prepared in MH2. Out of these working solutions, 400 μL was transferred to wells in the first column of 96-well deep well plates. Each compound was transferred in triplicate. Plates were previously filled with 200 μL of MH2 media in all wells except for the wells in the first column. After compound and antibiotic addition, the compounds were serial two-fold diluted by transferring 200 μL from the first to the second column, then from the second to the third column and so on. Finally, 200 μL was removed from the last column.
(§6) Inoculum preparation. Microorganisms used were all revived from 20% glycerol (40% v/v glycerol in water was diluted with MH2) storage at −80° C. by inoculating them in 5 mL MH2. inoculums of E. coli containing a plasmid were selected for by adding 50 μg/mL KanaA. The Inoculums were grown to an optical density (measured by UV/Vis spectroscopy) of 0.6-0.8 at 600 nm. Out of these suspensions, actual inoculums were prepared by diluting them to an optical density (OD) of 0.1 in MH2 media. From these inoculums, 200 μL was transferred to each well, resulting in a final compound concentration range of 64 μM-31.3 nM. All plates were incubated at 900 rpm and 70% rH for 18 h at 37° C.
MIC determination. After 18 h of growth, 200 μL was transferred to a 96-well F-bottom plate. The optical density was determined by a plate reader at 600 nm, with 10 s shaking before reading. Triplicate measurements were averaged, and a growth curve was plotted in Microsoft Excel. The first column in which the growth reached half the value of maximum growth was determined as the MIC50 value for that particular compound.
MIC50. The MIC50 of a compound was assigned at which the bacterial growth reached half the value of maximum growth.

E. coli (APH(3′)Ia) = test: MIC 50, broth micro-dilution, E. coli expressing APH(3′)Ia; type: cell-based, Escherichia coli
Method: (§7) Plasmid transformation. Approximately 500 ng of the pET-9b(+) (Cat. No. 69432-3, Merck), pAT21-1 (provided by Prof. Dr. Patrice Courvalin, M.D., Pasteur Institute, France; prepared according to Trieu-Cuot et. al, Mol. Gen. Genet. 198(2), 348 (1985)), pBluescript::AAC(6′)-Ie/APH(2″)-Ia (provided by Prof. Dr. Sergei Vakulenko, M.D., University of Notre Dame, Ind., USA; prepared according to S. B. Vakulenko et. al., J. Biol. Chem. 287 (52), 43262 (2012)), pBlue_lpp_aacC3_rrnC and pSET152 (Cat. No. PVT3395, Life Science Market; prepared according to Bierman et al., Gene 116 (1), 43 (1992)) plasmids, encoding APH(3′)-Ia (SEQ ID NO:2), APH(3′)-IIIa (SEQ ID NO:3), AAC(6′)Ie-APH(2″)-Ia (SEQ ID NO:4), AAC(3)-III (SEQ ID NO:1), and AAC(3)-IV (SEQ ID NO:5) respectively, were individually incubated in a vial of competent cells for 15 min on ice. The cells were subsequently heated to 42° C. for 90 s, and cooled on ice for 1 min. After addition of 900 μL LB, the cells were incubated for 1 h at 37° C. and 200 rpm. Cells were plated on LB-agar supplemented with 50 μg/mL KanaA and incubated for 18 h at 37° C. The next day, a single colony was inoculated in 5 mL LB supplemented with 50 μg/mL and grown for 18 h at 37° C. and 200 rpm. A 200 μL sample of each culture was diluted with 200 μL of 40% v/v glycerol in water, and stored at −80° C. The plasmid was purified from the remaining culture using the Plasmid Miniprep kit. Plasmid DNA was investigated by Eurofins Genomics (Germany) to confirm the identity of the aminoglycoside resistance genes.
as §1, §2, §3, §4, §5, §6
(§8) MIC determination. After 18 h of growth, 200 μL was transferred to a 96-well F-bottom plate. The optical density was determined by a plate reader at 600 nm, with 10 s shaking before reading. Triplicate measurements were averaged, and a growth curve was plotted in Microsoft Excel. […]

E. coli (AAC(3)IV) = test: MIC 50, broth micro-dilution, E. coli expressing AAC(3)IV; type: cell-based, Escherichia coli
Method: as §7, §1, §2, §3, §4, §5, §6, §8

[1] = system: E. coli (AAC(6′)Ie-APH(2″)Ia); test: MIC 50, broth micro-dilution, E. coli expressing AAC(6′)Ie-APH(2″)Ia; type: cell-based, Escherichia coli
Method: as §7, §1, §2, §3, §4, §5, §6, §8

[2] = Escherichia coli, ATCC25922, 18 h
[3] = Escherichia coli, ATCC25922, ATCC25922 harboring plasmid encoding APH(3′)Ia
[4] = Escherichia coli, ATCC25922, ATCC25922 harboring plasmid encoding AAC(3)IV
[5] = Escherichia coli, ATCC25922, ATCC25922 harboring plasmid encoding AAC(6′)Ie-APH(2″)Ia
[6] = ATCC25922 harboring plasmid encoding APH(3′)Ia
[7] = ATCC25922 harboring plasmid encoding AAC(3)IV
[8] = ATCC25922 harboring plasmid encoding AAC(6′)Ie-APH(2″)Ia

Structure (SMILES) | MIC50 (E. coli ATCC25922 strain; [2]) | MIC50 (E. coli (APH(3′)Ia); [3]) | MIC50 (E. coli (AAC(3)IV); [4]) | MIC50 [1, 5] | MIC50 (E. coli ATCC25922 strain) | MIC50 (E. coli (APH(3′)Ia); [6]) | MIC50 (E. coli (AAC(3)IV); [7]) | MIC50 [1, 8]
CNCCNC(=N)NC1[C@@H](O)C(OC2[C@@H](F)[C@H](O[C@H]3OC(CN)[C@@H](O)CC3N)C(N)C[C@H]2NC(=O)[C@@H](O)CCN)O[C@H](CO)[C@H]1O (some centres unmarked) [ABX5038, Tobra-AHB-F-Gua 2-(methylamino)ethyl] | 0.25 µM (≈ 0.167 µg/mL) | 0.5 µM (≈ 0.335 µg/mL) | 1 µM (≈ 0.67 µg/mL) | 0.25 µM (≈ 0.167 µg/mL) | – | – | – | –
N=C(N)NC1[C@@H](O)C(OC2[C@@H](F)[C@H](O[C@H]3OC(CNCCO)[C@@H](O)CC3N)C(N)C[C@H]2NC(=O)[C@@H](O)CCN)O[C@H](CO)[C@H]1O (some centres unmarked) [ABX5045, 6N-2-hydroxy-ethyl-Tobra-AHB-F-Gua] | 1 µM (≈ 0.657 µg/mL) | 1 µM (≈ 0.657 µg/mL) | 2 µM (≈ 1.31 µg/mL) | 0.5 µM (≈ 0.328 µg/mL) | – | – | – | –
N=C(N)NC1[C@@H](O)C(OC2[C@@H](F)[C@H](O[C@H]3OC(CN)[C@@H](O)[C@H](O)C3O)C(N)C[C@H]2NC(=O)[C@@H](O)CCN)O[C@H](CO)[C@H]1O (stereo partly drawn) [ABX3003, 3′epi-KanaA-AHB-F-Gua] | 2 µM (≈ 1.26 µg/mL) | 8 µM (≈ 5.04 µg/mL) | 4 µM (≈ 2.52 µg/mL) | 2 µM (≈ 1.26 µg/mL) | – | – | – | –
N=C(NCC1CC1)NC1[C@@H](O)C(OC2[C@@H](F)[C@H](O[C@H]3OC(CN)[C@@H](O)CC3N)C(N)C[C@H]2NC(=O)[C@@H](O)CCN)O[C@H](CO)[C@H]1O (some centres unmarked) [ABX5027, Tobra-AHB-F-Gua cyclopropylmethyl] | 0.5 µM (≈ 0.333 µg/mL) | 1 µM (≈ 0.667 µg/mL) | 2 µM (≈ 1.33 µg/mL) | 0.5 µM (≈ 0.333 µg/mL) | – | – | – | –
NCC[C@H](O)C(=O)N[C@@H]1CC(N)[C@@H](O[C@H]2OC(CN)[C@@H](O)CC2N)[C@H](O)C1OC1O[C@H](CO)[C@@H](O)C(N)[C@H]1O (some centres unmarked) [ABX5004, Tobra-AHB] | – | – | – | – | 2 µM (≈ 1.14 µg/mL) | 4 to 8 µM | 4 µM (≈ 2.27 µg/mL) | 4 µM (≈ 2.27 µg/mL)
N=C(NCc1ccncc1)NC1[C@@H](O)C(OC2[C@@H](F)[C@H](O[C@H]3OC(CN)[C@@H](O)CC3N)C(N)C[C@H]2NC(=O)[C@@H](O)CCN)O[C@H](CO)[C@H]1O (some centres unmarked) [ABX5048, Tobra-AHB-F-Gua pyridin-4-yl methyl] | 1 µM (≈ 0.704 µg/mL) | 1 µM (≈ 0.704 µg/mL) | 1 to 2 µM (≈ 0.704 to 1.41 µg/mL) | 0.5 µM (≈ 0.352 µg/mL) | – | – | – | –
NCC[C@H](O)C(=O)N[C@@H]1CC(N)[C@@H](O[C@H]2OC(CN)[C@@H](O)[C@@H](O)C2N)[C@H](F)C1OC1O[C@H](CO)[C@@H](O)C(N)[C@H]1O (stereo partly drawn) [ABX4003, 3′Epi-KanaB-AHB-F] | – | – | – | – | 4 to 8 µM | 8 to 16 µM | 8 to 16 µM | 8 µM (≈ 4.69 µg/mL)
N=C(N)NC1[C@@H](O)C(OC2[C@@H](O)[C@H](O[C@H]3OC(CN)[C@@H](O)CC3N)C(N)C[C@H]2NC(=O)[C@@H](O)CCN)O[C@H](CO)[C@H]1O (some centres unmarked) [ABX5005, Tobra-AHB-Gua] | – | – | – | – | 1 to 2 µM | 2 to 4 µM | 1 to 2 µM | 2 µM (≈ 1.22 µg/mL)
